Results from the NIST ThermoML archive (doi:10.1016/j.tca.2014.06.026).

Assays:
[1] = 101 kPa, Liquid; for speed of sound: Frequency=2 MHz, Sing-around technique in a fixed-path interferometer; for viscosity: Oscillating disk viscometry; for mass density: Vibrating tube method
[2] = xn = mol fraction of the nth substance listed; details: 101 kPa, Liquid, x1 = 1; for speed of sound: Frequency=2 MHz, Sing-around technique in a fixed-path interferometer; for viscosity: Oscillating disk viscometry; for mass density: Vibrating tube method

NC1CCCCC1 [cyclohexylamine]
[1]
Details | mass density [kg/m3] | speed of sound [m/s] | viscosity [mPa·s]
303.15 K | 857.71 | 1397.8 | 1.797
308.15 K | 853.14 | 1379.2 | 1.704
313.15 K | 848.61 | 1360.6 | 1.617
318.15 K | 844.07 | 1342 | 1.506

CN1CCCC1=O [N-methylpyrrolidone] + OC1CCCCC1
[2]
Details | mass density [kg/m3] | speed of sound [m/s] | viscosity [mPa·s]
303.15 K | 1023.45 | 1552.8 | 1.511
308.15 K | 1019.34 | 1526.4 | 1.409
313.15 K | 1014.82 | 1501 | 1.332
318.15 K | 1010.06 | 1478 | 1.21

C1=CCCCC1 [cyclohexene]
[1]
Details | mass density [kg/m3] | speed of sound [m/s] | viscosity [mPa·s]
303.15 K | 801.81 | 1252.1 | 0.581
308.15 K | 797.25 | 1224.8 | 0.549
313.15 K | 792.61 | 1196.6 | 0.516
318.15 K | 788.02 | 1169.6 | 0.488

CN1CCCC1=O [N-methylpyrrolidone]
[1]
Details | mass density [kg/m3] | speed of sound [m/s] | viscosity [mPa·s]
303.15 K | 1023.45 | 1552.8 | 1.511
308.15 K | 1019.34 | 1526.4 | 1.409
313.15 K | 1014.82 | 1501 | 1.332
318.15 K | 1010.06 | 1478 | 1.21

OC1CCCCC1 [cyclohexanol]
[1]
Details | mass density [kg/m3] | speed of sound [m/s] | viscosity [mPa·s]
303.15 K | 941.32 | 1443.2 | 41.07
308.15 K | 937.23 | 1419.6 | 27.95
313.15 K | 933.48 | 1395.2 | 16.66
318.15 K | 928.11 | 1370.8 | 8.888

CN1CCCC1=O [N-methylpyrrolidone] + C1=CCCCC1
[2]
Details | mass density [kg/m3] | speed of sound [m/s] | viscosity [mPa·s]
303.15 K | 1023.45 | 1552.8 | 1.511
308.15 K | 1019.34 | 1526.4 | 1.409
313.15 K | 1014.82 | 1501 | 1.332
318.15 K | 1010.06 | 1478 | 1.21

CN1CCCC1=O [N-methylpyrrolidone] + NC1CCCCC1
[2]
Details | mass density [kg/m3] | speed of sound [m/s] | viscosity [mPa·s]
303.15 K | 1023.45 | 1552.8 | 1.511
308.15 K | 1019.34 | 1526.4 | 1.409
313.15 K | 1014.82 | 1501 | 1.332
318.15 K | 1010.06 | 1478 | 1.21
